From US9150632B2 (Indiana University Research and Technology Corporation, priority 2009, dated 2015)
Non-standard residues stand in square brackets, D forms with d. Residues, ends and D or L forms follow the SMILES beside them. No end group written: not given here. *: point of attachment. Palmitoyl = CCCCCCCCCCCCCCCC(=O)*; Aib = CC(C)(N)C(=O)O

Legend:
GIP receptor = target: T1, GIP receptor (Homo sapiens, UniProt P48546); experiment: Functional assay-cAMP synthesis, luciferase reporter in HEK293 cells, GIP receptor; format: cell-based; conditions: for GIP Receptor % relative activity: activity relative to the native hormone at the indicated receptor; for EC50: cAMP induction, in vitro, as in Example 14
T1 construct: expressed in transfected cells; host or cells: HEK293
T1 sequence (P48546 22-466): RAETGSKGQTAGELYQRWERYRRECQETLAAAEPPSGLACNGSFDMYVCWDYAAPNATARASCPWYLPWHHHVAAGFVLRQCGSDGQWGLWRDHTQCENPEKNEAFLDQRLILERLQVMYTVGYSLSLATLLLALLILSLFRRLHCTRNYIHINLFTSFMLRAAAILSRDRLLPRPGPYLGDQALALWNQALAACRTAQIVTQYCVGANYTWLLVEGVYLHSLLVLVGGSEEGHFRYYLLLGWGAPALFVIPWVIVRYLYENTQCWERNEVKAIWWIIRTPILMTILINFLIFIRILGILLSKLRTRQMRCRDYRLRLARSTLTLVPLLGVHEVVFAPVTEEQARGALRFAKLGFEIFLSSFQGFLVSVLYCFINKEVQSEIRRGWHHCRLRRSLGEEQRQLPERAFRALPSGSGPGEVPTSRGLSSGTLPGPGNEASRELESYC

GLP-1 receptor [1] = target: T2, GLP-1 receptor (Homo sapiens, UniProt P43220); conditions: for GLP-1 Receptor % relative activity: activity relative to the native hormone at the indicated receptor
T2 sequence (P43220 24-463, species assumed): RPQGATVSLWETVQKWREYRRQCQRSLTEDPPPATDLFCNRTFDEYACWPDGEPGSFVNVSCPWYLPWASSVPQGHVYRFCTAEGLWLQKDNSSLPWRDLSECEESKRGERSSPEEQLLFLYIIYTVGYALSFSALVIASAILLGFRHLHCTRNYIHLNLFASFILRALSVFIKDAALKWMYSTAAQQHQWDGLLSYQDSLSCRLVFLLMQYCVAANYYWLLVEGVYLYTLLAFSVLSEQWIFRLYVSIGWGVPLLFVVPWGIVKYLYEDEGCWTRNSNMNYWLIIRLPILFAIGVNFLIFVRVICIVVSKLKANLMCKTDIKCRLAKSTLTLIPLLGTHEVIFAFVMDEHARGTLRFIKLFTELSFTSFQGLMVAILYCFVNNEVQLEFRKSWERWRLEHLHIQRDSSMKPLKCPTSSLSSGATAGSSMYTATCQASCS
Protocol: (§1) Peptide absorbance readings were obtained from UV Absorbance measurements at 280 nm on a Genesys 6 Spectrophotometer (Thermo Electron Corporation). Beer's Law was used to calculate solution concentrations based on the number of tryptophan and tyrosine residues in each analog. At the end of the incubation, 100 μL LucLite luminescence substrate reagent was added to each well, the plate sealed and shaken, and placed into a Wallac Trilux luminescence counter for cAMP detection.
(§2) HEK293 cells were co-transfected with the GcgR or GLP-1R cDNAs and a luciferase reporter gene-linked to a cAMP response element (CRE). […] The plate was incubated for 10 min in the dark and light output was quantified on a MicroBeta1450 liquid scintillation counter (Perkin-Elmer, Wellesley, Mass.).

GLP-1 receptor [2] = target: T2, GLP-1 receptor; experiment: cell-based
Protocol: as §1, §2

glucagon receptor = target: T3, glucagon receptor (Homo sapiens, UniProt P47871); experiment: Functional assay-cAMP synthesis, luciferase reporter in HEK293 cells, glucagon receptor; format: cell-based; conditions: for Glucagon Receptor % relative activity: activity relative to the native hormone at the indicated receptor; for EC50: cAMP induction, in vitro, as in Example 14
T3 construct: expressed in transfected cells; host or cells: HEK293
T3 sequence (P47871 26-477): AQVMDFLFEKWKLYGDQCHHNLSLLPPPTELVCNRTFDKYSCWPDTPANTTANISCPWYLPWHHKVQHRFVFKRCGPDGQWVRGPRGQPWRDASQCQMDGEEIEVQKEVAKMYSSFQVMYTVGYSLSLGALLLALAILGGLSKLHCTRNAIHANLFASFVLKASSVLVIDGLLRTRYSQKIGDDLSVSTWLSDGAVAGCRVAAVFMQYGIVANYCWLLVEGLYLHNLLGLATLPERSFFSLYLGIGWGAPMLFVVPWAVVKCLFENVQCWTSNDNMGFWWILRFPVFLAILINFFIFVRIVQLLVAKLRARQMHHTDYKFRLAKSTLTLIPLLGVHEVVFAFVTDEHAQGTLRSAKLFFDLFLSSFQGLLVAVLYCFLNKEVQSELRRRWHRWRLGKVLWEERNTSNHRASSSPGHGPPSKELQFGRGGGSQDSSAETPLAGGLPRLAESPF
Protocol: as §1, §2

[3] = pH 7
[4] = Body weight, body composition and food intake in diet-induced obesity (DIO) mice; format: in vivo
Protocol: […] 6 mice per group with initial average body weight of 44 g were tested. Body weight, body composition, food intake, and blood glucose levels were determined periodically.
Body weight was measured before injection and at 1, 3, 5, and 7 days post-injection.
Changes in body weight of and food intake by the mice were measured 0, 1, 3, 5, 7, 8, 10, 12, and 14 days after injection. Blood glucose levels of the mice were monitored throughout the 14 days. Glucose tolerance tests were performed by injecting a 25% glucose in saline solution 1 hour or 24 hours after administration of the acylated or pegylated peptide and measuring blood glucose levels at −60, 0, 15, 30, 60, or 120 min after the glucose injection.
The acylated glucagon analogs were as follows:
C57BI/6 mice were obtained from Jackson Laboratories and fed a diabetogenic diet from Research Diets, a high sucrose diet with 58% kcal from fat. Mice were single or group-housed on a 12:12-h light-dark cycle at 22° C. with free access to food and water. All studies were approved by and performed according to the guidelines of the Institutional Animal Care and Use Committee of the University of Cincinnati.
Whole body composition (fat and lean mass) was measured using NMR technology (EchoMRI, Houston, Tex.).
The peptides were administered daily for two weeks to 11 groups of 8 C57Bl/6 mice by subcutaneous injection at a dose of 10 or 30 nmol/kg. […]

[5] = Table 35, relative to the native hormone

Compound | GIP Receptor % relative activity (GIP receptor) [%] | EC50 (GIP receptor) [nM] | GLP-1 Receptor % relative activity (GLP-1 receptor [1]) [%] | EC50 (GLP-1 receptor [2]) [nM] | Glucagon Receptor % relative activity (glucagon receptor) [%] | EC50 (glucagon receptor) [nM] | further results
CC[C@H](C)[C@H](NC(=O)[C@H](CO)NC(=O)[C@H](Cc1ccc(O)cc1)NC(=O)[C@H](CC(=O)O)NC(=O)[C@H](CO)NC(=O)[C@@H](NC(=O)[C@H](Cc1ccccc1)NC(=O)[C@@H](NC(=O)CNC(=O)[C@H](CCC(N)=O)NC(=O)C(C)(C)NC(=O)[C@@H](N)Cc1c[nH]cn1)[C@@H](C)O)[C@@H](C)O)C(=O)N[C@@H](Cc1ccc(O)cc1)C(=O)N[C@@H](CC(C)C)C(=O)N[C@@H](CC(=O)O)C(=O)NC(C)(C)C(=O)N[C@@H](CCC(N)=O)C(=O)N[C@@H](C)C(=O)N[C@@H](C)C(=O)N[C@@H](CCCCN)C(=O)N[C@@H](CCC(=O)O)C(=O)N[C@@H](Cc1ccccc1)C(=O)N[C@H](C(=O)N[C@@H](CC(N)=O)C(=O)N[C@@H](Cc1c[nH]c2ccccc12)C(=O)N[C@@H](CC(C)C)C(=O)N[C@@H](CCSC)C(=O)N[C@@H](CC(N)=O)C(=O)NCC(=O)NCC(=O)N1CCC[C@H]1C(=O)N[C@@H](CO)C(=O)N[C@@H](CO)C(=O)NCC(=O)N[C@@H](C)C(=O)N1CCC[C@H]1C(=O)N1CCC[C@H]1C(=O)N1CCC[C@H]1C(=O)N[C@@H](CO)C(=O)N[C@@H](CCCCN)C(N)=O)C(C)C [mt-361] (H-H[Aib]QGTFTSDYSIYLD[Aib]QAAKEFVNWLMNGGPSSGAPPPSK-NH2) | 0.29 | 1.05 | 226.35 | 0.0109 | 3.61 | 1.77 | 
Glucagon, Cys17PEG5K: Glucagon Cys17(1-29) reacted with mPEG-Mal-5000 |  |  |  |  |  |  | Percent Soluble [3]: 94%
CC[C@H](C)[C@H](NC(=O)[C@H](Cc1ccccc1)NC(=O)[C@H](CCC(=O)O)NC(=O)[C@H](CCCCN)NC(=O)[C@H](C)NC(=O)[C@H](C)NC(=O)[C@H](CCC(N)=O)NC(=O)[C@H](CCC(=O)O)NC(=O)[C@H](CC(=O)O)NC(=O)[C@H](CC(C)C)NC(=O)[C@H](Cc1ccc(O)cc1)NC(=O)[C@H](CCCCN)NC(=O)[C@H](CO)NC(=O)[C@H](Cc1ccc(O)cc1)NC(=O)[C@H](CC(=O)O)NC(=O)[C@H](CO)NC(=O)[C@@H](NC(=O)[C@H](Cc1ccccc1)NC(=O)[C@@H](NC(=O)CNC(=O)[C@H](CCC(N)=O)NC(=O)C(C)(C)NC(=O)[C@@H](N)Cc1c[nH]cn1)[C@@H](C)O)[C@@H](C)O)C(=O)N[C@@H](C)C(=O)N[C@@H](Cc1c[nH]c2ccccc12)C(=O)N[C@@H](CC(C)C)C(=O)N[C@@H](CCSC)C(=O)N[C@@H](CC(N)=O)C(=O)NCC(=O)NCC(=O)N1CCC[C@H]1C(=O)N[C@@H](CO)C(=O)N[C@@H](CO)C(=O)NCC(=O)N[C@@H](C)C(=O)N1CCC[C@H]1C(=O)N1CCC[C@H]1C(=O)N1CCC[C@H]1C(=O)N[C@@H](CO)C(=O)N[C@@H](CCCCN)C(N)=O [mt-363] | 0.73 | 0.425 | 671.66 | 0.0037 | 7.76 | 0.823 | 
CC[C@H](C)[C@H](NC(=O)[C@H](Cc1ccccc1)NC(=O)[C@H](CCC(=O)O)NC(=O)[C@H](CCCCN)NC(=O)[C@H](C)NC(=O)[C@H](C)NC(=O)[C@H](CCC(N)=O)NC(=O)C(C)(C)NC(=O)[C@H](CC(=O)O)NC(=O)[C@H](CC(C)C)NC(=O)[C@H](Cc1ccc(O)cc1)NC(=O)[C@H](CCCCN)NC(=O)[C@H](CO)NC(=O)[C@H](Cc1ccc(O)cc1)NC(=O)[C@H](CC(=O)O)NC(=O)[C@H](CO)NC(=O)[C@@H](NC(=O)[C@H](Cc1ccccc1)NC(=O)[C@@H](NC(=O)CNC(=O)[C@H](CCC(N)=O)NC(=O)C(C)(C)NC(=O)[C@@H](N)Cc1c[nH]cn1)[C@@H](C)O)[C@@H](C)O)C(=O)N[C@@H](CS)C(=O)N[C@@H](Cc1c[nH]c2ccccc12)C(=O)N[C@@H](CC(C)C)C(=O)N[C@@H](CCSC)C(=O)N[C@@H](CC(N)=O)C(=O)NCC(=O)NCC(=O)N1CCC[C@H]1C(=O)N[C@@H](CO)C(=O)N[C@@H](CO)C(=O)NCC(=O)N[C@@H](C)C(=O)N1CCC[C@H]1C(=O)N1CCC[C@H]1C(=O)N1CCC[C@H]1C(=O)N[C@@H](CO)C(=O)N[C@@H](CCCCN)C(N)=O [mt-348] (H-H[Aib]QGTFTSDYSKYLD[Aib]QAAKEFICWLMNGGPSSGAPPPSK-NH2) | 0.15 |  | 148.65 | 0.0037 | 8.16 |  | % Relative activity at the Receptor for GIP (GIP receptor; [5]): 0.2%; % Relative activity at the Receptor for GLP-1 (GLP-1 receptor [1]; [5]): 149%; % Relative activity at the Receptor for Glucagon (glucagon receptor; [5]): 8.2%
CCCCCCCCCCCCCCCC(=O)NCCCC[C@H](NC(=O)[C@H](CO)NC(=O)[C@@H]1CCCN1C(=O)[C@@H]1CCCN1C(=O)[C@@H]1CCCN1C(=O)[C@H](C)NC(=O)CNC(=O)[C@H](CO)NC(=O)[C@H](CO)NC(=O)[C@@H]1CCCN1C(=O)CNC(=O)CNC(=O)[C@H](CC(N)=O)NC(=O)[C@H](CCSC)NC(=O)[C@H](CC(C)C)NC(=O)[C@H](Cc1c[nH]c2ccccc12)NC(=O)[C@H](CC(N)=O)NC(=O)[C@@H](NC(=O)[C@H](Cc1ccccc1)NC(=O)[C@H](CCC(=O)O)NC(=O)[C@H](CCCCN)NC(=O)[C@H](C)NC(=O)[C@H](C)NC(=O)[C@H](CCC(N)=O)NC(=O)C(C)(C)NC(=O)[C@H](CC(=O)O)NC(=O)[C@H](CC(C)C)NC(=O)[C@H](Cc1ccc(O)cc1)NC(=O)[C@@H](NC(=O)[C@H](CO)NC(=O)[C@H](Cc1ccc(O)cc1)NC(=O)[C@H](CC(=O)O)NC(=O)[C@H](CO)NC(=O)[C@@H](NC(=O)[C@H](Cc1ccccc1)NC(=O)[C@@H](NC(=O)CNC(=O)[C@H](CCC(N)=O)NC(=O)C(C)(C)NC(=O)[C@@H](N)Cc1c[nH]cn1)[C@@H](C)O)[C@@H](C)O)[C@@H](C)CC)C(C)C)C(N)=O [mt-362] (H-H[Aib]QGTFTSDYSIYLD[Aib]QAAKEFVNWLMNGGPSSGAPPPSK(Palmitoyl)-NH2; N-terminus assumed) | 3.95 | 0.0782 | 240.96 | 0.102 | 83.17 | 0.0768 | agonist activity at the GIP receptor (GIP receptor; text on Table 34): exceptionally potent activity
Peptide U: SEQ ID NO: 1 with Glu16, Gln17, Ala18, Lys20, Glu21, Ile23, Cys24 with 20-kd pegylation, no AIB2, no lactam (HSQGTFTSDYSKYLDEQAAKEFIC(PEG 20 kDa)WLMNT) |  |  |  |  |  |  | body weight lowering ([4]; each day for one week at 50 nmol/kg s.c.): -13.71 ± 0.92 g
CC[C@H](C)[C@H](NC(=O)[C@H](Cc1ccccc1)NC(=O)[C@H](CCC(=O)O)NC(=O)[C@H](CCCCN)NC(=O)[C@H](C)NC(=O)[C@H](C)NC(=O)[C@H](CCC(N)=O)NC(=O)[C@H](CCC(=O)O)NC(=O)[C@H](CC(=O)O)NC(=O)[C@H](CC(C)C)NC(=O)[C@H](Cc1ccc(O)cc1)NC(=O)[C@H](CCCCN)NC(=O)[C@H](CO)NC(=O)[C@H](Cc1ccc(O)cc1)NC(=O)[C@H](CC(=O)O)NC(=O)[C@H](CO)NC(=O)[C@@H](NC(=O)[C@H](Cc1ccccc1)NC(=O)[C@@H](NC(=O)CNC(=O)[C@H](CCC(N)=O)NC(=O)C(C)(C)NC(=O)[C@@H](N)Cc1c[nH]cn1)[C@@H](C)O)[C@@H](C)O)C(=O)N[C@@H](CS)C(=O)N[C@@H](Cc1c[nH]c2ccccc12)C(=O)N[C@@H](CC(C)C)C(=O)N[C@@H](CCSC)C(=O)N[C@@H](CC(N)=O)C(=O)NCC(=O)NCC(=O)N1CCC[C@H]1C(=O)N[C@@H](CO)C(=O)N[C@@H](CO)C(=O)NCC(=O)N[C@@H](C)C(=O)N1CCC[C@H]1C(=O)N1CCC[C@H]1C(=O)N1CCC[C@H]1C(=O)N[C@@H](CO)C(=O)N[C@@H](CCCCN)C(N)=O [mt-346] | 0.34 | 0.796 | 366.67 | 0.0015 | 3.70 | 0.954 | 
HXQGTFTSDYSKYLDEQAAKEFICWLMNT-NH2 [Chimera-2-AIB^2 Cys^24-40 kD] |  |  |  |  |  |  | ability to lower body weight ([4]; i.p. 15 or 70 nmol/kg, 7 days post-injection): comparable ability to lower body weight
